Experimental data published in article PMC4843953, “Eukaryotic elongation factor 2 kinase regulates the synthesis of microtubule‐related proteins in neurons” (Journal of Neurochemistry, 2015).

Tests used:
Assay type in all cases: cell-based, mice
[1] = system: mRNA levels (Calm, Nsf, Ppp1 cc, Kif5a, Map2, Map1b, Arc); assay: qRT-PCR of total mRNA levels in primary cortical neurons; details: bicuculline 50 μM, 60 min; p < 0.001
Experimental: Neurons were treated with bicuculline (50 μM) or vehicle dimethylsulfoxide for 60 min prior to lysis. JAN‐452 or JAN‐384 was administered 30 min prior to bicuculline/vehicle. RNA was purified from cultures using the GeneJET RNA purification kit (K0731; Thermo Fisher, Waltham, MA, USA) and QIAshredder spin columns (79656; Qiagen, Valencia, CA, USA). One μg of RNA was reverse transcribed using the ImProm‐II reverse transcription system (Promega, Madison, WI, USA). qPCR was performed with 1 μL of cDNA using the GoTaq qPCR master mix (A6001; Promega) on a StepOne real‐time PCR system (Life Technologies, Grand Island, NY, USA). PCR conditions were as follows: 95°C for 2 min followed by 40 cycles of 95°C for 15 s and 60°C for 45 s. Median Ct values from samples run in triplicate were used for analysis using the ΔΔCt method with Gapdh as the control. Prior to use in experiments, all primer pairs were determined to be efficient (100 ± 10%) and yield only one appropriately sized product based on melt‐curve analysis and agarose gel electrophoresis. Primers were as follows: Calm: 5′‐[…]‐3′ and 5′‐[…]‐3′; Nsf: 5′‐ […]‐3′ and 5′‐[…]‐3′; Ppp1 cc: 5′‐ […]‐3′ and 5′‐[…]‐3′; Kif5a: 5′‐ […]‐3′ and 5′‐[…]‐3′; Map2: 5′‐ […]‐3′ and 5′‐[…]‐3′; Map1b: 5′‐ CGGACAGTGCTTTGAGAAC‐3′ and 5‐GTGAGGCTGGCTTTGTTG‐3′; Gapdh: 5′‐[…]‐3′ and 5′‐[…]‐3′; Arc: 5′‐[…]‐3′ and 5′‐[…]‐3′. […]

[2] = system: eEF2 phosphorylation; assay: p-eEF2 levels in primary cortical neurons (immunoblot)
Excerpt: Primary neuronal cortical cultures were isolated from P0 or P1 C57BL/6J mice, or eEF2K‐WT or KO mice of either sex as previously described (Wong et al. 2005; Kenney et al. 2015). eEF2K mice were generated by Taconic Biosciences, Cranbury, NJ, USA; all mice were bred from colonies maintained at the Southampton General Hospital. All procedures involving mice were done in accordance with United Kingdom Animals (Scientific Procedures) Act 1986 and approved by the University of Southampton.
Figure 1 Combining pharmacological and genetic strategies with stable isotope labeling of amino acids in cell culture (SILAC)/bio‐orthogonal non‐canonical amino acid tagging (BONCAT) labeling to identify proteins whose synthesis is regulated by eEF2K. (a) Top, the effect of bicuculline administration on p‐eEF2 levels. […] Bottom, examination of the effect of bicuculline on p‐eEF2 levels in neurons from eEF2K‐WT or KO mice. Blots are representative of three to four independent experimental replicates. (b) Experimental designs for combined SILAC/BONCAT labeling to identify proteins whose synthesis are affected by eEF2K inhibition. […] Protein localization was determined using DAVID (Huang et al. 2009), or where DAVID lacked annotation, NCBI.
(§1) Immunoblot data were quantified using LICOR software (version 3.0, Lincoln, NE, USA). Data were analyzed using two‐way ANOVAs. […]

[3] = system: newly synthesized NSF; assay: Newly synthesized protein, AHA labeling, streptavidin isolation and western blot; details: AHA labeling 1 h; 2 × 2 ANOVA
Experimental: (§2) Neurons were starved of Met for 30 min in Met‐free neurobasal medium and then labeled for 1 h in the presence of 2 mM AHA. After labeling, neurons were washed three times in ice cold phosphate‐buffered saline (PBS) and then lysed [50 mM Tris‐HCl, 50 mM β‐glycerophosphate, 1 mM EGTA, 1 mM EDTA, 1% Triton‐X, 2 × protease inhibitors (Roche Molecular Biochemicals, Indianapolis, IN, USA)] on ice. The lysate was centrifuged at 14 000 g for 10 min at 4°C and the supernatant was used for click‐chemistry using a biotin‐alkyne (B10185; Invitrogen, Carlsbad, CA, USA) and the protein reaction kit (C10276; Invitrogen) so that only newly synthesized proteins are tagged with biotin. Un‐reacted biotin was removed via gel‐filtration (GE; PD MiniTrap G‐25) using PBS‐T (0.01% Tween) as flow‐through. […]
as §1
(§3) Figure 3 Confirmation of two eEF2K targets identified via stable isotope labeling of amino acids in cell culture (SILAC)/bio‐orthogonal non‐canonical amino acid tagging (BONCAT). […] (c) Quantification of western blot data. *p < 0.01 via 2 × 2 (bicuculline × eEF2K inhibitor) ANOVA; n = 8–9.

[4] = system: newly synthesized PPP1CC; assay: as above; details: AHA labeling 1 h; 2 × 2 ANOVA
Experimental: as §2, §1, §3

CN1CCc2cc3c(cc2[C@H]1[C@@H]1OC(=O)c2c1ccc1c2OCO1)OCO3 [bicuculline]
Arc mRNA [1]: large increase
eEF2 phosphorylation in neurons from eEF2K-KO mice ([2]; eEF2K-KO neurons, completely devoid of eEF2 phosphorylation): did not affect
p-eEF2 level after bicuculline administration ([2]; primary cortical neurons, back to baseline levels after 60 min): rapid increase
amount of newly synthesized NSF [3]: no effect
amount of newly synthesized PPP1CC [4]: no effect
